Assay results published in US9469854B2, “Pharmaceutical composition for treating liver diseases” (Academia Sinica, priority 2014, dated 2016).

Legend:
Type in all cases: cell-based, human
hsa-miR-21-3p = test: miRNA microarray profiling of berberine-treated HepG2 cells; settings: HepG2, 40 μM berberine, 2 h and 4 h vs control cells
Experimental: The miRNA profiling was performed using an Agilent human miRNA Microarray R14 V2 containing 866 human miRNAs. […] Microarrays were scanned following the Agilent microarray scanner protocol, and image analysis and quantification were performed using the Agilent Feature Extraction software (Agilent Technologies). […]

miR-21-3p = test: qRT-PCR microRNA assay in HepG2 cells; settings: HepG2, 40 μM berberine
Experimental: (§1) The human HepG2 cells and HEK 293T cells used in the following examples were originally obtained from the American Tissue Culture Collection (ATCC, USA). The human HCC HepG2 cell line was cultured in Minimum Essential Medium Eagle (Sigma) supplemented with 10% fetal bovine serum (FBS) (Invitrogen), 2.2 g/L of sodium bicarbonate (Sigma), 0.1 mM of non-essential amino acids (Caisson), 1 mM of sodium pyruvate (Invitrogen), and 10 of ml/L penicillin-streptomycin-amphotericin solution (Biological Industries). Human HEK-293T cells were maintained in high-glucose Dulbecco's modified eagle medium (Invitrogen) supplemented with 10% FBS and 3.7 g/L of sodium bicarbonate (Sigma). Both cell lines were cultured at 37° C. and 5% CO2. A 50 mM stock solution of berberine chloride (Sigma-Aldrich) was prepared in dimethyl sulfoxide (DMSO). Cells were treated with 40 μM of berberine chloride or 0.08% DMSO as the control. For induction of lipid droplets formation in cultured cells, 200 μM of oleic acid (Sigma-Aldrich) was added into the culture medium for 24 h. Total RNA was extracted using a TRIZOL reagent (Invitrogen) according to the manufacturer's protocol. The total RNA quantity was measured using a NanoDrop ND-1000 spectrophotometer (Nanodrop Technologies). The total RNA quality and integrity were assayed using an Agilent 2100 bioanalyzer with an RNA 6000 nano kit (Agilent Technologies). […] The microRNA expression levels were normalized to RNU6B levels.

miR-21-5p = test: qRT-PCR microRNA assay in HepG2 cells; settings: HepG2, 40 μM berberine
Experimental: as §1

DGAT2 = test: qRT-PCR mRNA expression in HepG2 cells; settings: HepG2, miR-21-3p over-expressed, 24 h
Experimental: (§2) The human HepG2 cells and HEK 293T cells used in the following examples were originally obtained from the American Tissue Culture Collection (ATCC, USA). The human HCC HepG2 cell line was cultured in Minimum Essential Medium Eagle (Sigma) supplemented with 10% fetal bovine serum (FBS) (Invitrogen), 2.2 g/L of sodium bicarbonate (Sigma), 0.1 mM of non-essential amino acids (Caisson), 1 mM of sodium pyruvate (Invitrogen), and 10 of ml/L penicillin-streptomycin-amphotericin solution (Biological Industries). Human HEK-293T cells were maintained in high-glucose Dulbecco's modified eagle medium (Invitrogen) supplemented with 10% FBS and 3.7 g/L of sodium bicarbonate (Sigma). Both cell lines were cultured at 37° C. and 5% CO2.
(§3) Total RNA was extracted using a TRIZOL reagent (Invitrogen) according to the manufacturer's protocol. The total RNA quantity was measured using a NanoDrop ND-1000 spectrophotometer (Nanodrop Technologies). The total RNA quality and integrity were assayed using an Agilent 2100 bioanalyzer with an RNA 6000 nano kit (Agilent Technologies).
(§4) Total RNAs (1 μg) were reverse-transcribed into cDNA by using M-MuLV Reverse Transcriptase (Thermo) and Oligo(dT)12-18 primers (Invitrogen) according to the manufacturer's protocol. The cDNA were then used for a real-time PCR with a LightCycler 480 SYBR Green I Master (Roche) by using primers shown in the following Table 1. The gene expression levels were normalized to GAPDH levels.
(§5) The HepG2 cells were transfected at a density of 5×10^4 cells per well in a 24-well culture plates with either 50 nM of hsa-miR-21-3p (miR-21-3p mimic) or negative-control mimic (NC mimic), or with either 100 nM of hsa-miR-21-3p inhibitor (miR-21-3p inhibitor) or negative-control inhibitor (NC inhibitor) by using the DharmaFECT 4 transfection reagent (Thermo Scientific Dharmacon) according to the manufacturer's instructions. Cells were incubated for 24 h or 48 h with a microRNA mimic or inhibitor prior to RNA purification for gene expression analysis, and were incubated for 72 h for protein expression analysis.

DIDO1 = test: qRT-PCR mRNA expression in HepG2 cells; settings: HepG2, 50 nM mimic transfection, 24 hours
Experimental: as §2, §3, §4, §5

EEF2K = test: qRT-PCR mRNA expression in HepG2 cells; settings: HepG2, 50 nM mimic transfection, 24 hours
Experimental: as §2, §3, §4, §5

NBPF8 = test: qRT-PCR mRNA expression in HepG2 cells; settings: HepG2, 50 nM mimic transfection, 24 hours
Experimental: as §2, §3, §4, §5

TMEM137 = test: qRT-PCR mRNA expression in HepG2 cells; settings: HepG2, 50 nM mimic transfection, 24 hours
Experimental: as §2, §3, §4, §5

[1] = system: intracellular malonyl-CoA; test: Measurement of intracellular malonyl-CoA concentration in HepG2 cells; settings: HepG2, 72-h mimic transfection
Experimental: After transfection with 50 nM of miR-21-3p mimic or the negative-control mimic for 72 h, the PHH cells and HepG2 cells were trypsinized. The intracellular malonyl-CoA concentration was measured using the malonyl-CoA ELISA Kit (MyBioSource) according to the manufacturer's instructions.

| Compound | hsa-miR-21-3p expression increase (miRNA microarray) (hsa-miR-21-3p) [fold] | miR-21-3p level increase (qRT-PCR) (miR-21-3p; 1 h vs untreated control) [fold] | miR-21-3p level increase (qRT-PCR) (miR-21-3p; 2 h (peak) vs untreated control) [fold] | miR-21-3p level increase (qRT-PCR) (miR-21-3p; 8 h vs untreated control) [fold] | miR-21-5p level increase (qRT-PCR) (miR-21-5p; 2 h) [fold] | miR-21-5p expression change (qRT-PCR) (miR-21-5p; 4 h and 8 h) | decrease in mRNA level of DGAT2 (DGAT2) [fold] | decrease in mRNA expression of DIDO1 (DIDO1) [%] | decrease in mRNA expression of EEF2K (EEF2K) [%] | decrease in mRNA expression of NBPF8 (NBPF8) [%] | decrease in mRNA expression of TMEM137 (TMEM137) [%] | intracellular malonyl-CoA concentration decrease [1] [fold] |
| --- | --- | --- | --- | --- | --- | --- | --- | --- | --- | --- | --- | --- |
| COc1ccc2cc3[n+](cc2c1OC)CCc1cc2c(cc1-3)OCO2 [berberine] | 4 | 2.1 | 3.5 | 2.8 | 2 | no significant differences | – | – | – | – | – | – |
| hsa-miR-21-3p (CAACACCAGUCGAUGGGCUGU; listed as RNA, chemistry not given here) [miR-21-3p mimic] | – | – | – | – | – | – | 2.3 | < 50 | > 50 | < 50 | < 50 | 1.6 |
